Experimental data: PubChem BioAssay (NCI)
Several values for one entry are separate records, joined by “and”; a condition that tells them apart may be missing. Equal values may be shown once.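 Five concentrations, 48 hours, 96-well plates. At the GI50, growth is halved. TGI marks complete inhibition of growth.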

Columns and labels:
Test in all cases: NCI-60 cell line screen, 48 h
SNB-78 CNS = tested on: SNB-78 CNS
DMS 114 small cell lung = tested on: DMS 114 small cell lung
LXFL 529 NSCLC = tested on: LXFL 529 NSCLC
KM20L2 colon = tested on: KM20L2 colon
DLD-1 colon = tested on: DLD-1 colon
PC-3 prostate = tested on: PC-3 prostate
DMS 273 small cell lung = tested on: DMS 273 small cell lung
MDA-N = tested on: MDA-N
RXF-631 renal = tested on: RXF-631 renal

| Structure (SMILES) | TGI (SNB-78 CNS) [µM] | TGI (LXFL 529 NSCLC) | TGI (KM20L2 colon) | TGI (DLD-1 colon) | GI50 (PC-3 prostate) | TGI (PC-3 prostate) | TGI (DMS 273 small cell lung) | also measured |
| --- | --- | --- | --- | --- | --- | --- | --- | --- |
| O=c1c(Cl)c(Cl)cnn1-c1ccccc1 | 20.8 | 11.9 µM and 3.13 µM | 24.5 µM and 15.7 µM | 2.84 µM and 5.22 µM | 5.42 µM and 1.77 µM | 12 µM and 3.23 µM | 3.94 µM and 12.4 µM | TGI (DMS 114 small cell lung): 5.76 µM and 3.09 µM; GI50 (KM20L2 colon): 0.655 µM and 6.44 µM; GI50 (DMS 273 small cell lung): 2.03 µM and 5.59 µM; TGI (MDA-N): 6.77 µM and 3.65 µM |
| OCCNCO | > 100 | > 100 µM | > 100 µM | – | – | – | > 100 µM | – |
| NNC(=O)c1cnn(-c2ccnc3c(C(F)(F)F)cccc23)c1N | – | – | – | – | > 100 µM | > 100 µM | – | – |
| COc1ccc(N=Cc2cc(OC)c(OC)c(OC)c2)cc1 | > 100 | > 100 µM | > 100 µM | > 100 µM | – | – | > 100 µM | TGI (DMS 114 small cell lung): > 100 µM; GI50 (DMS 273 small cell lung): 33 µM |
| O=C1CC[C@H]2CNC(=O)C[C@H]2C1 | > 100 | > 100 µM | – | > 100 µM | – | – | > 100 µM | TGI (RXF-631 renal): > 100 µM |
| N#Cc1cnn2ccn(C3OC(COC(=O)c4ccccc4)C(OC(=O)c4ccccc4)C3OC(=O)c3ccccc3)c12 (stereo not given) | – | – | – | – | – | 21.5 µM | – | TGI (MDA-N): > 21.5 µM |
| COc1ccc(-n2cc(-c3ccc(OC)c(OC)c3)[nH]c2=S)cc1Cl | – | – | – | – | > 100 µM | > 100 µM | – | – |
| CC(=O)/C=C/c1cccc(N=S)c1 | > 100 | 32.9 µM | 37 µM | 16.5 µM | – | – | 20.9 µM | TGI (RXF-631 renal): > 100 µM; TGI (DMS 114 small cell lung): > 66.1 µM |
| O=C1c2ccccc2-c2c1c1cc3c(cc1c(=O)n2CCCCl)OCO3 | – | – | – | – | 42.7 µM | > 100 µM | – | – |
| ClCc1ccccc1CSc1ncnc2nc[nH]c12 | – | – | – | – | > 60 µM | > 60 µM | – | – |
| CN1CCN(C(=S)N(C)C(=O)c2ccc(Cl)cc2)CC1 | – | – | – | – | – | – | – | TGI (MDA-N): > 100 µM |
| CN(C)S(=O)(=O)Nc1ccccn1 | – | – | – | – | – | > 100 µM | – | TGI (MDA-N): > 100 µM |
| N#Cc1c(O)c2c(c(O)c1C#N)C(=O)c1ccccc1C2=O | – | – | – | – | 1.57 µM | 7.01 µM | – | – |
| c1ccc(-c2nnc(-c3nn(-c4ccccc4)c4nc5ccccc5nc34)o2)cc1 | > 100 | > 100 µM | > 100 µM | > 100 µM | – | – | > 100 µM | TGI (DMS 114 small cell lung): > 100 µM |
| O=C1NC(=O)C2C(=O)NC(=O)C1C2(c1ccccc1)c1ccc(Cl)cc1 (stereo not given) | > 100 | > 100 µM | > 100 µM | > 100 µM | – | – | > 100 µM | – |
| C[Si](C)(C)c1ccc(CC2(Cc3ccc([Si](C)(C)C)cc3)CCNC2)cc1 | 8.87 | 4.79 µM | 3.93 µM | 6.87 µM | – | – | 3.42 µM | TGI (RXF-631 renal): 5.36 µM; TGI (DMS 114 small cell lung): 3.87 µM |
| CC(=O)c1ccc(N(/C=C/C(=O)C(F)(F)F)CC(=O)c2ccc(Cl)c(Cl)c2)cc1 | – | – | – | – | 11.5 µM | 30.2 µM | – | – |
| CC1=C(CCCOC(=O)NCCCl)C2=C(C)C3(CC3)[C@@](C)(O)C(=O)C2=C1 | – | – | – | – | 4.01 µM | > 100 µM | – | – |
| Clc1ccc(Cc2nc3cc4ccccc4cc3[nH]2)cc1 | – | – | – | – | 7.12 µM | > 100 µM | – | – |
| CCOC(=O)CCCO | – | > 100 µM | > 100 µM | > 100 µM | – | – | – | TGI (RXF-631 renal): > 100 µM |
| O=[n+]1c(CBr)c(CBr)n([O-])c2ccccc21 | – | – | – | – | 13.4 µM | 31.1 µM | – | – |

| Structure (SMILES) | TGI (SNB-78 CNS) [µM] | TGI (LXFL 529 NSCLC) | TGI (KM20L2 colon) | TGI (DLD-1 colon) | GI50 (PC-3 prostate) | TGI (PC-3 prostate) | TGI (DMS 273 small cell lung) | also measured |
| --- | --- | --- | --- | --- | --- | --- | --- | --- |
| COc1cccc(-c2nc(-c3cnccn3)n(Cc3ccccc3)n2)c1 | – | – | – | – | – | > 100 µM | – | TGI (MDA-N): > 100 µM |
| CN=C1NC(=O)/C(=C/c2ccc3ncccc3c2)S1 | – | – | – | – | 13.8 µM | > 25 µM | – | – |
| Cc1c(N2C(=O)/C(=C\c3ccccc3O)N=C2c2ccccc2)c(=O)n(-c2ccccc2)n1C | – | – | – | – | > 100 µM | > 100 µM | – | – |
| O=C(Nc1ccccc1[N+](=O)[O-])c1ccccc1 | > 100 | > 100 µM | > 100 µM | > 100 µM | – | – | > 100 µM | TGI (RXF-631 renal): > 100 µM; TGI (DMS 114 small cell lung): > 100 µM |
| COc1ccc(/C=C(/C(=O)O)c2cc(OC)c(OC)c(OC)c2)cc1 | > 100 | > 100 µM | 98.2 µM | > 100 µM | – | – | > 100 µM | TGI (RXF-631 renal): > 100 µM; TGI (DMS 114 small cell lung): > 100 µM |
| CC(=O)OCCc1cccnc1/C=N/O | > 100 | > 100 µM | > 100 µM | > 100 µM | – | – | > 100 µM | TGI (DMS 114 small cell lung): > 100 µM |
| O=C(/C=C/c1cccs1)c1ccc(Cl)cc1 | – | – | – | – | – | > 100 µM | – | TGI (MDA-N): > 100 µM |
| Clc1cccc(NC=Nc2ccc(-c3nc4ccccc4s3)cc2)c1 | – | – | – | – | 12.1 µM | > 50 µM | – | – |
| NC1(CCCCCCCCCCC(=O)O)CNCCNCCNCCNC1 | – | – | > 100 µM | > 100 µM | – | – | – | TGI (DMS 114 small cell lung): > 100 µM |
| COc1cccc(-c2nn(-c3ccccc3)cc2-c2ccnc(NCCCNS(=O)(=O)c3cccc(F)c3)c2)c1 | – | – | – | – | 2.97 µM | > 100 µM | – | – |
| C[C@]12CCC(=O)C=C1CC[C@@H]1C2CC[C@]2(C)NC(=O)C(C#N)CC12 (stereo not given in full) | > 100 | > 100 µM | > 100 µM | > 100 µM | – | – | > 100 µM | TGI (DMS 114 small cell lung): > 100 µM |
| N#Cc1nc(-c2ccc(F)cc2)oc1S(=O)(=O)N1CCOCC1 | – | – | – | – | 11.6 µM | 26.9 µM | – | – |
| O=C(O)Cc1c[nH]c2ccc(F)cc12 | – | – | – | – | – | > 100 µM | – | TGI (MDA-N): > 100 µM |
| O=C1CSC(N2CCN(c3cccc(Cl)c3)CC2)=N1 | – | – | – | – | > 100 µM | > 100 µM | – | – |
| O=C(N/N=C/c1cccc(O)c1O)N/N=C/c1cccc(O)c1O | > 100 | > 100 µM | 95.2 µM | – | – | – | 65.2 µM | TGI (DMS 114 small cell lung): > 100 µM |
| C/C(=N\NC(N)=S)c1ccc(C)cc1C | > 100 | > 100 µM | > 100 µM | > 100 µM | – | – | > 100 µM | TGI (RXF-631 renal): > 100 µM |
| Fc1ccc(-c2nn(-c3ccccc3)cc2-c2nc3ccccc3o2)cc1 | – | – | – | – | 0.491 µM | > 100 µM | – | – |
| O=C1CCC(NC(=O)c2ccccc2)C(=O)N1 (stereo not given) | – | – | – | – | – | > 100 µM | – | TGI (MDA-N): > 100 µM |
| CCOC(=O)c1cc(-c2ccc([N+](=O)[O-])cc2)n(-c2ccc(C(=O)O)c(O)c2)c1C | – | – | – | – | 2.96 µM | 18.8 µM | – | – |
| CC1=C2[C@@H](CC1)[C@]1(C)O[C@@](C(C)C)(C[C@H]1OC(=O)[C@H](C)O)[C@H]2OC(=O)/C=C/c1ccccc1 | – | – | – | – | 4.46 µM | 19.1 µM | – | – |
